Assay results taken from a compilation of properties of binary mixtures (doi:10.1016/j.molliq.2018.07.077).

Test: xn = mol fraction of the nth substance listed
Conditions: 101 kPa

C[n+]1ccn(CCCC#N)c1.O=S(=O)([O-])C(F)(F)F + CC#N
Conditions | electrical conductivity [S/m] | viscosity [mPa·s]
288.15 K, x1 = 0.2002 | 1.88 | 6.79
288.15 K, x1 = 0.4006 | 0.55 | 70.7
288.15 K, x1 = 0.6005 | 0.175 | 160
288.15 K, x1 = 0.698 | 0.07 | 340
288.15 K, x1 = 0.7996 | 0.053 | 579
288.15 K, x1 = 0.9007 | 0.031 | 874
288.15 K, x1 = 1 | 0.023 | 1182
293.15 K, x1 = 0.1002 | 2.87 | 1.51
293.15 K, x1 = 0.2002 | 2.08 | 5.95
293.15 K, x1 = 0.2994 | 1.19 | 14.1
293.15 K, x1 = 0.4006 | 0.651 | 55.5
293.15 K, x1 = 0.5 | 0.246 | 85.7
293.15 K, x1 = 0.698 | 0.093 | 255
293.15 K, x1 = 0.7996 | 0.079 | 417
293.15 K, x1 = 0.9007 | 0.044 | 625
293.15 K, x1 = 1 | 0.033 | 811
298.15 K, x1 = 0.1002 | 3.04 | 1.4
298.15 K, x1 = 0.2002 | 2.28 | 5.23
298.15 K, x1 = 0.2994 | 1.35 | 12.15
298.15 K, x1 = 0.4006 | 0.766 | 44.44
298.15 K, x1 = 0.5 | 0.315 | 68.6
298.15 K, x1 = 0.6005 | 0.278 | 92
298.15 K, x1 = 0.698 | 0.124 | 195.4
298.15 K, x1 = 0.9007 | 0.061 | 450
298.15 K, x1 = 1 | 0.046 | 581
303.15 K, x1 = 0.1002 | 3.22 | 1.3
303.15 K, x1 = 0.2002 | 2.49 | 4.65
303.15 K, x1 = 0.2994 | 1.51 | 10.55
303.15 K, x1 = 0.4006 | 0.896 | 36.24
303.15 K, x1 = 0.5 | 0.394 | 54.8
303.15 K, x1 = 0.6005 | 0.345 | 72.2
303.15 K, x1 = 0.698 | 0.163 | 149
303.15 K, x1 = 0.7996 | 0.151 | 230
308.15 K, x1 = 0.1002 | 3.41 | 1.21
308.15 K, x1 = 0.2002 | 2.69 | 4.18
308.15 K, x1 = 0.4006 | 1.03 | 29.81
308.15 K, x1 = 0.5 | 0.485 | 44.07
308.15 K, x1 = 0.6005 | 0.419 | 57.2
308.15 K, x1 = 0.698 | 0.213 | 116.3
308.15 K, x1 = 0.7996 | 0.193 | 174
308.15 K, x1 = 0.9007 | 0.106 | 245
313.15 K, x1 = 0.1002 | 3.57 | 1.13
313.15 K, x1 = 0.2994 | 1.88 | 8.05
313.15 K, x1 = 0.4006 | 1.17 | 24.79
313.15 K, x1 = 0.6005 | 0.5 | 46.5
313.15 K, x1 = 0.698 | 0.274 | 91.3
313.15 K, x1 = 0.9007 | 0.135 | 185
313.15 K, x1 = 1 | 0.104 | 231
318.15 K, x1 = 0.2002 | 3.08 | 3.41
318.15 K, x1 = 0.2994 | 2.08 | 7.12
318.15 K, x1 = 0.4006 | 1.32 | 21.09
318.15 K, x1 = 0.6005 | 0.593 | 37.8
318.15 K, x1 = 0.7996 | 0.288 | 104.7
318.15 K, x1 = 1 | 0.131 | 177.1
323.15 K, x1 = 0.2002 | 3.28 | 3.13
323.15 K, x1 = 0.2994 | 2.29 | 6.32
323.15 K, x1 = 0.4006 | 1.48 | 18.37
323.15 K, x1 = 0.5 | 0.781 | 25.17
323.15 K, x1 = 0.698 | 0.44 | 61.3
323.15 K, x1 = 0.7996 | 0.341 | 83.4
323.15 K, x1 = 0.9007 | 0.205 | 104.8
323.15 K, x1 = 1 | 0.161 | 141.4
